ChEMBL document CHEMBL2390840, “An analysis of the synthetic tryptamines AMT and 5-MeO-DALT: emerging 'Novel Psychoactive Drugs'” (Bioorg Med Chem Lett, 2013)

What was measured:
[1] = target: T1, 5-hydroxytryptamine receptor 2C (Homo sapiens, UniProt P28335); assay: Agonist activity at human 5-HT2C receptor expressed in HEK293 cells assessed as increase in calcium mobilization by FLIPR assay; type: functional, cell-based
T1 sequence (P28335 whole entry): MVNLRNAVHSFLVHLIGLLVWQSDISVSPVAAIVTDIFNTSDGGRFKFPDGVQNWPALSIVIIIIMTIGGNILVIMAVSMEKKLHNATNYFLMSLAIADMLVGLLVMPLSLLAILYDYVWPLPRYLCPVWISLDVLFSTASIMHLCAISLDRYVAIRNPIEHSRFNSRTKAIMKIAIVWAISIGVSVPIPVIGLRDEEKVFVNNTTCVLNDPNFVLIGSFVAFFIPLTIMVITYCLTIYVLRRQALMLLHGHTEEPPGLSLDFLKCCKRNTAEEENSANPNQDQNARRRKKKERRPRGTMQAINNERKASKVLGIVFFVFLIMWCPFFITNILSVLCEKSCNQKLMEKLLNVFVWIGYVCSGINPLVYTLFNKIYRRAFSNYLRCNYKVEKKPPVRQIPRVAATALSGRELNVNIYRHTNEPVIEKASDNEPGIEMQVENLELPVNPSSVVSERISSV

[2] = target: 5-hydroxytryptamine receptor 1E (Homo sapiens, UniProt P28566); assay: Displacement of [3H]5-HT from human recombinant 5-HT1E receptor expressed in HEK293 cells after 1 to […] by scintillation counting analysis; type: cell-based
Cannabinoid receptor 2 = Cannabinoid receptor 2 (Homo sapiens, UniProt P34972); assay: Displacement of [3H]CP55940 from human recombinant CB2 receptor expressed in HEK293 cells coexpressing FLP-IN after 1 to […] by scintillation counting analysis; type: cell-based
[3] = target: Beta-2 adrenergic receptor (Homo sapiens, UniProt P07550); assay: Displacement of [125I]Iodopindolol from human recombinant adrenergic beta2 receptor expressed in HEK293 cells coexpressing FLP-IN after 1 to […] by scintillation counting analysis; type: cell-based
[4] = target: Beta-3 adrenergic receptor (Homo sapiens, UniProt P13945); assay: Displacement of [125I]Iodopindolol from human recombinant adrenergic beta3 receptor expressed in HEK293 cells coexpressing FLP-IN after 1 to […] by scintillation counting analysis; type: cell-based
[5] = Displacement of [3H]Muscimol from GABAA receptor in rat brain after 1 to […] by scintillation counting analysis; type: tissue-based
Histamine H1 receptor = Histamine H1 receptor (Homo sapiens, UniProt P35367); assay: Displacement of [3H]Pyrilamine from human recombinant histamine H1 receptor expressed in HEK293 cells after 1 to […] by scintillation counting analysis; type: cell-based
[6] = target: 5-hydroxytryptamine receptor 2C (Homo sapiens) (UniProt P28335); assay: Agonist activity at human 5-HT2C receptor expressed in HEK293 cells assessed as increase in calcium mobilization by FLIPR assay relative to 5-HT; type: functional, cell-based
[7] = target: Beta-1 adrenergic receptor (Homo sapiens, UniProt P08588); assay: Displacement of [125I]Iodopindolol from human recombinant adrenergic beta1 receptor expressed in CHO cells coexpressing FLP-IN after 1 to […] by scintillation counting analysis; type: cell-based
[8] = target: Nicotinic acetylcholine receptor alpha2/beta4 (Homo sapiens, UniProt P02708+P30926); assay: Displacement of [3H]Epibatidine from human recombinant alpha2beta4 nACh receptor expressed in HEK293 cells after 1 to […] by scintillation counting analysis; type: cell-based
Glutamate NMDA receptor = assay: Displacement of [3H]MK801 from NMDA receptor PCP binding site in rat brain after 1 to […] by scintillation counting analysis; type: tissue-based
Histamine H4 receptor = Histamine H4 receptor (Homo sapiens, UniProt Q9H3N8); assay: Displacement of [3H]Histamine from human recombinant histamine H4 receptor expressed in HEK293 cells after 1 to […] by scintillation counting analysis; type: cell-based
[9] = target: Neuronal acetylcholine receptor; alpha4/beta4 (Homo sapiens, UniProt P30926+P43681); assay: Displacement of [3H]Epibatidine from human recombinant alpha4beta4 nACh receptor expressed in HEK293 cells after 1 to […] by scintillation counting analysis; type: cell-based
[10] = target: Sigma non-opioid intracellular receptor 1 (Cavia porcellus, UniProt Q60492); assay: Displacement of [3H]Pentazocine from guinea pig sigma 1 receptor after 1 to […] by scintillation counting analysis
[11] = target: 5-hydroxytryptamine receptor 6 (Homo sapiens, UniProt P50406); assay: Displacement of [3H]LSD from human recombinant 5-HT6 receptor expressed in HEK293 cells after 1 to […] by scintillation counting analysis; type: cell-based
[12] = target: T2, Sodium-dependent dopamine transporter (Homo sapiens, UniProt Q01959); assay: Displacement of [3H]WIN35428 from human recombinant dopamine transporter expressed in HEK293 cells after 1 to […] by scintillation counting analysis; type: cell-based
[13] = target: Sodium-dependent serotonin transporter (Homo sapiens, UniProt P31645); assay: Displacement of [3H]Citalopram from human recombinant serotonin transporter expressed in HEK293 cells after 1 to […] by scintillation counting analysis; type: cell-based
Translocator protein = Translocator protein (Rattus norvegicus, UniProt P16257); assay: Displacement of [3H]PK11195 from peripheral benzodiazepine receptor in rat brain after 1 to […] by scintillation counting analysis; type: tissue-based
[14] = Displacement of [3H]Baclofen from GABAB receptor in rat brain after 1 to […] by scintillation counting analysis; type: tissue-based
[15] = target: Neuronal acetylcholine receptor; alpha4/beta2 (Homo sapiens, UniProt P17787+P43681); assay: Displacement of [3H]Epibatidine from human recombinant alpha4beta2 nACh receptor expressed in HEK293 cells after 1 to […] by scintillation counting analysis; type: cell-based
[16] = target: Muscarinic acetylcholine receptor M4 (Homo sapiens, UniProt P08173); assay: Displacement of [3H]QNB from human recombinant muscarinic M4 receptor expressed in CHO cells after 1 to […] by scintillation counting analysis; type: cell-based
[17] = target: Alpha-1D adrenergic receptor (Homo sapiens, UniProt P25100); assay: Displacement of [3H]Prazosin from human recombinant adrenergic alpha1D receptor expressed in HEK293 cells after 1 to […] by scintillation counting analysis; type: cell-based
D(1A) dopamine receptor = D(1A) dopamine receptor (Homo sapiens, UniProt P21728); assay: Displacement of […] from human recombinant dopamine D1 receptor expressed in HEK293 cells after 1 to […] by scintillation counting analysis; type: cell-based
Mu-type opioid receptor = Mu-type opioid receptor (Homo sapiens, UniProt P35372); assay: Displacement of [3H]DAMGO from human recombinant mu opioid receptor receptor expressed in HEK293 cells after 1 to […] by scintillation counting analysis; type: cell-based
[18] = target: T2, Sodium-dependent dopamine transporter; type: cell-based, HEK293
[19] = target: 5-hydroxytryptamine receptor 2A (Homo sapiens, UniProt P28223); assay: Agonist activity at human 5-HT2A receptor expressed in HEK293 cells assessed as increase in calcium mobilization by FLIPR assay relative to 5-HT; type: functional, cell-based
[20] = Displacement of [3H]Flunitrazepam from GABAA receptor benzodiazepine binding site in rat brain after 1 to […] by scintillation counting analysis; type: tissue-based

Chain of Sigma non-opioid intracellular receptor 1 (Q60492 whole entry): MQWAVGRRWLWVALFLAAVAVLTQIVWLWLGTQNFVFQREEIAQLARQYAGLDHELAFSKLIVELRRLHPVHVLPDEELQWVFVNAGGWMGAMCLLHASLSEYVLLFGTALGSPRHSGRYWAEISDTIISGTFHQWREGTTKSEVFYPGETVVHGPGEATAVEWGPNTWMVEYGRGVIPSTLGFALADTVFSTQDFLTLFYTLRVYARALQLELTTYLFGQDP
Chain of Histamine H1 receptor (P35367 whole entry): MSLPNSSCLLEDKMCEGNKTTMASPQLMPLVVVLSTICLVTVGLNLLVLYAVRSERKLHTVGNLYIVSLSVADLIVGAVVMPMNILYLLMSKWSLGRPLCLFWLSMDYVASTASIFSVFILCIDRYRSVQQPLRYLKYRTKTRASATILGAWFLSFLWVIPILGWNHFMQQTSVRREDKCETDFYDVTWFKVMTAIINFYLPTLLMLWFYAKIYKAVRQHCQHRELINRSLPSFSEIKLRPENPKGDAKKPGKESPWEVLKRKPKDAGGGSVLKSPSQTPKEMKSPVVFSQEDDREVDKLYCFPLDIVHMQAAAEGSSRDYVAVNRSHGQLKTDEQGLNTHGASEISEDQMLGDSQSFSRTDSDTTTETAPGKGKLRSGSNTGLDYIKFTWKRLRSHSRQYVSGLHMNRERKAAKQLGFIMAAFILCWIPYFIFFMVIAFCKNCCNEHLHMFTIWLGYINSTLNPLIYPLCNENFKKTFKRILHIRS
T2 sequence (Q01959 whole entry): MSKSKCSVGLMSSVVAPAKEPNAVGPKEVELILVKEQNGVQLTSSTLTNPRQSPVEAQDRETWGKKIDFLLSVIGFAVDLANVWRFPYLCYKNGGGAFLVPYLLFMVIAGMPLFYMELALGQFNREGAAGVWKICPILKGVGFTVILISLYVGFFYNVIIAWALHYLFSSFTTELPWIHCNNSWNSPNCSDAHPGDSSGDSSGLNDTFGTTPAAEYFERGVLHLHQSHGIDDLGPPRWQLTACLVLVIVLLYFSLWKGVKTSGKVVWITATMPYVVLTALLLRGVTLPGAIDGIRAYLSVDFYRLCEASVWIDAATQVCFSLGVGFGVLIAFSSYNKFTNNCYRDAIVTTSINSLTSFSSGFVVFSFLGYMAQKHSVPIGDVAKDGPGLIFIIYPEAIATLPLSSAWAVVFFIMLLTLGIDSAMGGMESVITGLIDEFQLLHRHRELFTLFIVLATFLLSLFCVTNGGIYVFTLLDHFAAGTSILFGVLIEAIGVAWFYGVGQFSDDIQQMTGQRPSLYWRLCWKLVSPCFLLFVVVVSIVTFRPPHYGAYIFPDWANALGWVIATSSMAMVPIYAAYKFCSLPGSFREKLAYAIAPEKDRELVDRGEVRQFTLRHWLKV
Chain of Muscarinic acetylcholine receptor M4 (P08173 whole entry): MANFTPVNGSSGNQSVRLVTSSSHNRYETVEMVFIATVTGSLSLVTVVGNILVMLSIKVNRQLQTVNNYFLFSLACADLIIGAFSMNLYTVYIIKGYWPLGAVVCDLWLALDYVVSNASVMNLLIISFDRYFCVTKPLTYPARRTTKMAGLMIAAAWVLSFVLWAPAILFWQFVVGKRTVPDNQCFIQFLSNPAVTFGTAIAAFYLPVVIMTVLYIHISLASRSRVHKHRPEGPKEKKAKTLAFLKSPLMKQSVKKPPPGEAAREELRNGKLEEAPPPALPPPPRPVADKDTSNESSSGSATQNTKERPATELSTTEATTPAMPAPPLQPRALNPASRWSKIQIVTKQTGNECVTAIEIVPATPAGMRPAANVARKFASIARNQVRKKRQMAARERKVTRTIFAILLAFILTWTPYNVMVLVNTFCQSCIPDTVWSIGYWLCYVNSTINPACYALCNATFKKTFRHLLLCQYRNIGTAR
Chain of Neuronal acetylcholine receptor; alpha4/beta2 (P17787 whole entry): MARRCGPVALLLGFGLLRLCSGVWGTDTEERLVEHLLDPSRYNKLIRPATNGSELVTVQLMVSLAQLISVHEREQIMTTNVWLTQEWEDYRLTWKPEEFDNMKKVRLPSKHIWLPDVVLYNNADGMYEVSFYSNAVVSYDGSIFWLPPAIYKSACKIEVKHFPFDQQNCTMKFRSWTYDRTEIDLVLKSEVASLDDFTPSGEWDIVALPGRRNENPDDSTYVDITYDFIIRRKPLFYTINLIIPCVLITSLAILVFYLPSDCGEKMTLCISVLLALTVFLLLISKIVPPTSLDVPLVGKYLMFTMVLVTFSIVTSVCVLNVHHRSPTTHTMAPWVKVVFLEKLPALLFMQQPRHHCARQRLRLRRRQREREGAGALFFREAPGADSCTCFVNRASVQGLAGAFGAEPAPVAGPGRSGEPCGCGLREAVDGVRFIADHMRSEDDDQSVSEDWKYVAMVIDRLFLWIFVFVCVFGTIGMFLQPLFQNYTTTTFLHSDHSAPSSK
Chain of Neuronal acetylcholine receptor; alpha4/beta2 (P43681 whole entry): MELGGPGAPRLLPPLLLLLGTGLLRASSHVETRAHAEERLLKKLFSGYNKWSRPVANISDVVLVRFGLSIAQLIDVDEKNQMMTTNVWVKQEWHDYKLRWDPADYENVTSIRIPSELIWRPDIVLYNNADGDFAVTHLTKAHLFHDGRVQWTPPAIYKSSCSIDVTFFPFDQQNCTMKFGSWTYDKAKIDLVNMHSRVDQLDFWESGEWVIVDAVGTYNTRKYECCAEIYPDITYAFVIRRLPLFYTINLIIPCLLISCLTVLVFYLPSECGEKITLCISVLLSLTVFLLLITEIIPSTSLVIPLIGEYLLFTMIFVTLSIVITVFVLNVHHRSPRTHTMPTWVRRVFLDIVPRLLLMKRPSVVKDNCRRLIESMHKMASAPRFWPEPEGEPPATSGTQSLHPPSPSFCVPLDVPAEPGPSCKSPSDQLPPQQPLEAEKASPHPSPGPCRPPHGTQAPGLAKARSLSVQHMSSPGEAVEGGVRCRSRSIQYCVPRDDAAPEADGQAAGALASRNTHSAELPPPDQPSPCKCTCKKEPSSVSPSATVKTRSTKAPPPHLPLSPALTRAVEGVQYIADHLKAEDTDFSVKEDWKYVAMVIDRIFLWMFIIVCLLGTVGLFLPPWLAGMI
Chain of 5-hydroxytryptamine receptor 2A (P28223 whole entry): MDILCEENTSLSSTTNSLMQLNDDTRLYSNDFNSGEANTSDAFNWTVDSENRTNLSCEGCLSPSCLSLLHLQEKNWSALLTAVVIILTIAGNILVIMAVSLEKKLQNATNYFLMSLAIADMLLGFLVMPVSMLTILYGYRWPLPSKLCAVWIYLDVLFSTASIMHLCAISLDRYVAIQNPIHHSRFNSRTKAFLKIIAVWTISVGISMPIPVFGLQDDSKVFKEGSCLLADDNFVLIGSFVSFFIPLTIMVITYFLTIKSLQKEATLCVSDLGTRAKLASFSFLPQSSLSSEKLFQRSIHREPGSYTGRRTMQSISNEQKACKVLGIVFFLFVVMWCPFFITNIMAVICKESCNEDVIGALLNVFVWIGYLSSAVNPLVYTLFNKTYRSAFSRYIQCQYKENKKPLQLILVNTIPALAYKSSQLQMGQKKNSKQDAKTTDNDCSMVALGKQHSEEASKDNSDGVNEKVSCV
Chain of Histamine H4 receptor (Q9H3N8 whole entry): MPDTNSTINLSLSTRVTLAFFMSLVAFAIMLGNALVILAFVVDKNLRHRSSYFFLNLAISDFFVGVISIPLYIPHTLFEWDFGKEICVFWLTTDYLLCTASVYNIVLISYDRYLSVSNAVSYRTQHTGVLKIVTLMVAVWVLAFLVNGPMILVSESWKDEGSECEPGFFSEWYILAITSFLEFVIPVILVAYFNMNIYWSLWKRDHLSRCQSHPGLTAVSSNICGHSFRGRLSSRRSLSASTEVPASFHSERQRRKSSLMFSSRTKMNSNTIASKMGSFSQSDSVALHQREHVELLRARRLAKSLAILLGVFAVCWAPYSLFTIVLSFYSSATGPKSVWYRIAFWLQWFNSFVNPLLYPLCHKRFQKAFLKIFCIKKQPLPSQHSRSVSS
Chain of Nicotinic acetylcholine receptor alpha2/beta4 (P02708 whole entry): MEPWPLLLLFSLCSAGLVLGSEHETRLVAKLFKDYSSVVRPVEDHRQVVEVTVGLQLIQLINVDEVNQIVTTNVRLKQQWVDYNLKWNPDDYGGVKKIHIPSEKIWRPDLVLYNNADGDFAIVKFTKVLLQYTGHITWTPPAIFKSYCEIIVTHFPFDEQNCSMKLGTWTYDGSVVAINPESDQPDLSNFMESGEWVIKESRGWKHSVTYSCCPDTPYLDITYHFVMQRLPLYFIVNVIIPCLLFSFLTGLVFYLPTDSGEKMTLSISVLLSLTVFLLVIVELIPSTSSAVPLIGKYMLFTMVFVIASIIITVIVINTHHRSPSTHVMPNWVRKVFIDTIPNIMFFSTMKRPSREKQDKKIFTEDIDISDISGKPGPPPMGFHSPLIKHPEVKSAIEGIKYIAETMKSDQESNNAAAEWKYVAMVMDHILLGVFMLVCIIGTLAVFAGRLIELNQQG
Chain of Nicotinic acetylcholine receptor alpha2/beta4 (P30926 whole entry): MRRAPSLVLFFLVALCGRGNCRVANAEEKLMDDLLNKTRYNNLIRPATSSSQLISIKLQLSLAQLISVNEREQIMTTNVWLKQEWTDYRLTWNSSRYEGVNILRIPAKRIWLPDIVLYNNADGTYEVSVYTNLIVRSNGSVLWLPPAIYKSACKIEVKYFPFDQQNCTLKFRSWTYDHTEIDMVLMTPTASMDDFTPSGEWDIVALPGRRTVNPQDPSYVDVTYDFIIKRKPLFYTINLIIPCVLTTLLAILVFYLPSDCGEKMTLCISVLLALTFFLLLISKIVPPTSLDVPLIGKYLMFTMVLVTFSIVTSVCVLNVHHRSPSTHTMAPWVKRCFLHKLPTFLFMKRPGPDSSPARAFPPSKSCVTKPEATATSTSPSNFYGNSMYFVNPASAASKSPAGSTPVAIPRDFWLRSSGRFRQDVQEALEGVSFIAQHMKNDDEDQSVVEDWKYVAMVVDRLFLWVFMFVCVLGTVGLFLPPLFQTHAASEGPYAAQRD
Chain of Translocator protein (P16257 whole entry, looked up): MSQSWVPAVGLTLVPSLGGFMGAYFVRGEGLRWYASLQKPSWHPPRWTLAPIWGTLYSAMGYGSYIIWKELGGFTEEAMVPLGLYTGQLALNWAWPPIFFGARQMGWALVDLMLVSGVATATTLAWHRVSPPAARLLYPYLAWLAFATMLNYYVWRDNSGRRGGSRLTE

Compound	EC50 [1] [µM]	Ki [2] [µM]	Ki (Cannabinoid receptor 2) [µM]	Ki [3] [µM]	Ki [4] [µM]	pKi [5]	Ki (Histamine H1 receptor; read-out: pKi (converted)) [µM]	Emax [6] [%]	Ki [8] [µM]	pKi (Glutamate NMDA receptor)	Ki (Histamine H4 receptor) [µM]	Ki [9] [µM]	Ki ([10]; read-out: pKi (converted)) [µM]	Ki [11] [µM]	Ki [12] [µM]	Ki [13] [µM]	Ki (Translocator protein) [µM]	pKi [14]	Ki [15] [µM]	Ki [16] [µM]	other results
C=CCN(CC=C)CCc1c[nH]c2ccc(OC)cc12	0.0094	0.413	> 10	> 10	> 10	< 5	1.26	101	> 10	< 5	> 10	> 10	0.398	0.084	> 10	0.679	> 10	< 5	> 10	> 10	Ki (Histamine H1 receptor; read-out: Ki): 0.936 µM; Ki ([7]; read-out: pKi (converted)): > 10 µM; Ki ([10]; read-out: Ki): 0.4 µM; Ki [17]: > 10 µM; Ki (D(1A) dopamine receptor): > 10 µM; Ki (Mu-type opioid receptor): > 10 µM; IC50 [18]: 32.4 µM; Ki [18]: 17 µM; Emax [19]: 93%; pKi [20]: < 5
CC(N)Cc1c[nH]c2ccccc12 (stereo not drawn)	0.107	1.92	> 10	> 10	> 10	< 5	> 10	95	> 10	< 5	> 10	> 10	> 10	0.909	> 10	1.13	> 10	< 5	> 10	> 10	Ki ([7]; read-out: Ki): 3.78 µM; Ki [17]: > 10 µM; Ki (D(1A) dopamine receptor): > 10 µM; Ki (Mu-type opioid receptor): > 10 µM; IC50 [18]: 1.86 µM; Ki [18]: 0.666 µM; Emax [19]: 89%; pKi [20]: < 5
